The target of assay [1] is recombinant 17β-HSD13 protein (Homo sapiens (Human), UniProt Q7Z5P4). In words: 17β-HSD13 biochemical assay (NAD+/NADH Glo chemiluminescence). Conditions: 17β-HSD13 50 nM, NAD+ 10 mM, β-estradiol 20 μM, 2 hours room temperature. Summed up:
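Compounds preincubated 1 h at room temperature with 50 nM enzyme and 10 mM NAD+ (final) in 200 mM Tris pH 7.5, 0.01% Triton X-100, 0.02% BSA. Reaction started with 20 μM β-estradiol and run 2 hours at room temperature; NADH formation detected by NAD+/NADH-Glo chemiluminescence. IC50 from four-parameter logistic fit.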

The target of assay [2] is HEK293 cells expressing 17β-HSD13 (Homo sapiens (Human), UniProt Q7Z5P4). In words: 17β-HSD13 cell-based assay (β-estradiol conversion, LC-MS/MS). Here is the method:
HEK293 cells expressing 17β-HSD13 either stably or transiently were incubated with compounds for 60 min at 37° C. in a humidified incubator. After this first incubation step, β-estradiol was added to each well of the microtiter plate and incubated for 3 h at 37° C. in the humidified incubator. After treatment with β-Estradiol, 50 μL of supernatant was transferred to a 96-V plate containing 100 μL acetonitrile and centrifuged at 3900 rpm for 45 min. Finally, 50 μL of supernatant were taken for LC-MS/MS analysis. The chromatography part was run on a Xbridge 30 mm×2.1 mm column (Waters), at 40 degrees Celsius and a flow rate of 0.8 mL/min for 5 min, while the MS was done on a Q Exactive Orbitrap (Fisher Scientific) in Target SIM mode and negative polarity with a spray voltage of 3.5 kV. EC50 values were determined with GraphPad Prism®, where log-transformed concentration values and the inhibition data were fitted to a four-parameter logistic equation. Y=Bottom+(Top−Bottom)/(1+10^((Log EC50−X)*Hill Slope)). The original, % control, or % inhibition data are represented by Y along with their minimal (Bottom) and maximal (Top) values. The inhibitor concentration is represented by X, EC50 is the concentration at 50% maximal value, and Hill Slope is the slope factor.

Setting [3] is: HEK293 cells transiently expressing 17β-HSD13 (footnote a), read-out: EC50, nM Transient.
Setting [4] is: HEK293 cells stably expressing 17β-HSD13 (footnote b), read-out: EC50, nM Stable.

Our source for the IC50 and EC50 values is patent publication US20250026745A1 (Bluejay Therapeutics, Inc., priority 2023, published 2025).

One may read the IC50 as the concentration that inhibits the measured activity by half. As usually defined, the EC50 is the concentration that produces a half-maximal response.

Molecules are shown by their SMILES. Read-outs that look alike come from different tables or passages of the source.

Chain of HEK293 cells expressing 17β-HSD13 (Q7Z5P4 20-300): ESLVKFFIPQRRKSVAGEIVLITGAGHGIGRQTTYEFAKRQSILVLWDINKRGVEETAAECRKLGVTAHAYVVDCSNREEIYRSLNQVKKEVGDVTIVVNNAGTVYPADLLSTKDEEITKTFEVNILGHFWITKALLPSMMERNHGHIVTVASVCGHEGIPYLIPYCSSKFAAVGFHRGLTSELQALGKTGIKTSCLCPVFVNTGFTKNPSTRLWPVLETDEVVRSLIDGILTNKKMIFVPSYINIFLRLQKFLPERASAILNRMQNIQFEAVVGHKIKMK
Chain of recombinant 17β-HSD13 protein (Q7Z5P4 20-300): as above

For the compound `CC(C)N1C(=O)N(Cc2nnc(-c3ccc(F)c(O)c3F)s2)C2(CC2)C1=O` [Compound I-5, 4-((5-(2,4-difluoro-3-hydroxyphenyl)-1,3,4-thiadiazol-2-yl)methyl)-6-isopropyl-4,6-diazaspiro[2.4]heptane-5,7-dione], the IC50 in assay [1] stood at 8.99 ± 0.322 nM. Besides, in assay [2] (setting [3]), the EC50 was found to be 42.2 nM.
Turning to `O=C1N(Cc2ccccc2)C(=O)C2(CC2)N1Cc1nnc(-c2cc(C(F)(F)F)c(F)c(O)c2F)s1` [Compound I-57, 6-benzyl-4-((5-(2,4-difluoro-3-hydroxy-5-(trifluoromethyl)phenyl)-1,3,4-thiadiazol-2-yl)methyl)-4,6-diazaspiro[2.4]heptane-5,7-dione], in assay [1], the IC50 was 2.46 nM. For the same compound, the concentration for a half-maximal effect (EC50) in assay [2] (setting [4]) amounted to 52.7 nM.
The like results for `C[C@H](c1ccccc1)N1C(=O)N(Cc2nnc(-c3ccc(F)c(O)c3Cl)s2)C2(CC2)C1=O` [Compound I-31, 4-[[5-(2-chloro-4-fluoro-3-hydroxy-phenyl)-1,3,4-thiadiazol-2-yl]methyl]-6-[(1R)-1-phenylethyl]-4,6-diazaspiro[2.4]heptane-5,7-dione] were, in that order, 2.68 nM and 10.8 nM.
Consider `C[C@@H](c1ccccc1)N1C(=O)N(Cc2nnc(-c3ccc(F)c(O)c3Cl)s2)C2(CC2)C1=O` [Compound I-32, (S)-4-((5-(2-chloro-4-fluoro-3-hydroxyphenyl)-1,3,4-thiadiazol-2-yl)methyl)-6-(1-phenylethyl)-4,6-diazaspiro[2.4]heptane-5,7-dione], for which, in assay [1], the concentration for half-maximal inhibition (IC50) amounted to 3.72 nM. Besides, the EC50 in assay [2] (setting [4]) is 14.7 nM.
The matching figures for `O=C1N(Cc2nnc(-c3ccc(F)c(O)c3F)s2)C2(CC2)C(=O)N1C1(c2ccccc2)CC1` [Compound I-86, 4-((5-(2,4-difluoro-3-hydroxyphenyl)-1,3,4-thiadiazol-2-yl)methyl)-6-(1-phenylcyclopropyl)-4,6-diazaspiro[2.4]heptane-5,7-dione]: 2.5 nM and 4.74 nM.
The matching figures for `O=C1N(Cc2ccccc2)C(=O)C2(CC2)N1Cc1nnc(-c2cc(C(F)(F)F)cc(O)c2F)s1` [Compound I-55, 6-benzyl-4-((5-(2-fluoro-3-hydroxy-5-(trifluoromethyl)phenyl)-1,3,4-thiadiazol-2-yl)methyl)-4,6-diazaspiro[2.4]heptane-5,7-dione]: 2.14 nM and 29.2 nM.
The matching figures for `O=C1N(CC2(C(F)(F)F)CC2)C(=O)C2(CC2)N1Cc1nnc(-c2ccc(F)c(O)c2Cl)s1` [Compound I-26, 4-((5-(2-chloro-4-fluoro-3-hydroxyphenyl)-1,3,4-thiadiazol-2-yl)methyl)-6-((1-(trifluoromethyl)cyclopropyl)methyl)-4,6-diazaspiro[2.4]heptane-5,7-dione]: 18.7 ± 2.67 nM and 107 nM.
Consider `O=C1N([C@@H](c2ccc(-c3ccc(F)cc3)cc2F)C(F)(F)F)C(=O)C2(CC2)N1Cc1nnc(-c2ccc(F)c(O)n2)s1` [Compound I-96, (S)-6-(1-(3,4′-difluoro-[1,1′-biphenyl]-4-yl)-2,2,2-trifluoroethyl)-4-((5-(5-fluoro-6-hydroxypyridin-2-yl)-1,3,4-thiadiazol-2-yl)methyl)-4,6-diazaspiro[2.4]heptane-5,7-dione], for which the IC50 in assay [1] turned out to be 3.11 nM. The concentration giving a half-maximal response (EC50) in assay [2] (setting [4]) was 121 nM.
The like results for `CC(C)(C)N1C(=O)N(Cc2nnc(-c3ccc(F)c(O)c3Cl)s2)C2(CC2)C1=O` [Compound I-50, 6-(tert-butyl)-4-((5-(2-chloro-4-fluoro-3-hydroxyphenyl)-1,3,4-thiadiazol-2-yl)methyl)-4,6-diazaspiro[2.4]heptane-5,7-dione] were, in that order, 4.6 nM and 35.1 ± 6.03 nM.
The like results for `O=C1N(CC2(C(F)(F)F)CC2)C(=O)C2(CC2)N1Cc1nnc(-c2ccc(F)c(O)c2F)s1` [Compound I-19, 4-((5-(2,4-difluoro-3-hydroxyphenyl)-1,3,4-thiadiazol-2-yl)methyl)-6-((1-(trifluoromethyl)cyclopropyl)methyl)-4,6-diazaspiro[2.4]heptane-5,7-dione] were, in that order, 14.8 ± 2.51 nM and 78.8 nM.
As for `O=C1N(Cc2ccc(Cl)cc2Cl)C(=O)C2(CC2)N1Cc1nnc(-c2ccc(F)c(O)c2Cl)s1` [Compound I-34, 4-((5-(2-chloro-4-fluoro-3-hydroxyphenyl)-1,3,4-thiadiazol-2-yl)methyl)-6-(2,4-dichlorobenzyl)-4,6-diazaspiro[2.4]heptane-5,7-dione], in assay [1], the concentration for half-maximal inhibition (IC50) was determined as 4.6 nM. For the same compound, the 50% effective concentration (EC50) in assay [2] (setting [4]) was found to be 119 nM.
The like results for `CCN1C(=O)N(Cc2nnc(-c3cc(C(F)(F)F)cc(O)c3F)s2)C2(CC2)C1=O` [Compound I-14, 6-ethyl-4-[[5-[2-fluoro-3-hydroxy-5-(trifluoromethyl)phenyl]-1,3,4-thiadiazol-2-yl]methyl]-4,6-diazaspiro[2.4]heptane-5,7-dione] were, in that order, 9.6 nM and 125 nM.
With `O=C1N([C@@H](c2ccc(-c3ccc(F)cc3)cc2F)C(F)(F)F)C(=O)C2(CC2)N1Cc1nnc(-c2ccc(F)c(O)c2F)s1` [Compound I-97, (S)-4-((5-(2,4-difluoro-3-hydroxyphenyl)-1,3,4-thiadiazol-2-yl)methyl)-6-(1-(3,4′-difluoro-[1,1′-biphenyl]-4-yl)-2,2,2-trifluoroethyl)-4,6-diazaspiro[2.4]heptane-5,7-dione], the IC50 in assay [1] turned out to be 0.79 nM. In addition, in assay [2] (setting [4]), the EC50 worked out at 4.66 nM.
On to `O=C1N(C(c2ccccc2)C(F)(F)F)C(=O)C2(CC2)N1Cc1nnc(-c2ccc(F)c(O)c2Cl)s1` (stereo in doubt) [Compound I-53, 4-[[5-(2-chloro-4-fluoro-3-hydroxy-phenyl)-1,3,4-thiadiazol-2-yl]methyl]-6-[(S)-(difluoromethyl-fluoranyl)-phenyl-methyl]-4,6-diazaspiro[2.4]heptane-5,7-dione], for which, in assay [1], the IC50 worked out at 5.6 nM. Moreover, the EC50 in assay [2] (setting [4]) was determined as 26.3 nM.
The like results for `O=C1N(C2CCC2)C(=O)C2(CC2)N1Cc1nnc(-c2ccc(F)c(O)c2F)s1` [Compound I-30, 6-cyclobutyl-4-((5-(2,4-difluoro-3-hydroxyphenyl)-1,3,4-thiadiazol-2-yl)methyl)-4,6-diazaspiro[2.4]heptane-5,7-dione] were, in that order, 7.08 nM and 35.9 nM.
The matching figures for `O=C1N(CC(F)(F)F)C(=O)C2(CC2)N1Cc1nnc(-c2cc(C(F)(F)F)cc(O)c2Cl)s1` [Compound I-40, 4-((5-(2-chloro-3-hydroxy-5-(trifluoromethyl)phenyl)-1,3,4-thiadiazol-2-yl)methyl)-6-(2,2,2-trifluoroethyl)-4,6-diazaspiro[2.4]heptane-5,7-dione]: 9.8 nM and 66.4 nM.
The matching figures for `C[C@H](c1ccccc1)N1C(=O)N(Cc2nnc(-c3ccc(F)c(O)c3F)s2)C2(CC2)C1=O` [Compound I-82, (R)-4-((5-(2,4-difluoro-3-hydroxyphenyl)-1,3,4-thiadiazol-2-yl)methyl)-6-(1-phenylethyl)-4,6-diazaspiro[2.4]heptane-5,7-dione]: 1.76 ± 0.26 nM and 8.42 nM.
`CCN1C(=O)N(Cc2nnc(-c3ccc(F)c(O)c3F)s2)C2(CC2)C1=O` [Compound I-7, 4-((5-(2,4-difluoro-3-hydroxyphenyl)-1,3,4-thiadiazol-2-yl)methyl)-6-ethyl-4,6-diazaspiro[2.4]heptane-5,7-dione]: the IC50 in assay [1] amounted to 16.6 ± 8.74 nM. Also, the concentration giving a half-maximal response (EC50) in assay [2] (setting [3]) was 18.8 nM.
